Reference: patent US20060241174A1, “Vitamin E tocotrienols inhibition of intracellularly obligate pathogen Chlamydia and methods of use” (priority 2005, published 2006)

Experiments:
C. trachomatis SVK = assay: Flow cytometry on Chlamydia-infected human B-lymphocytes (JY) treated with delta tocotrienol; format: cell-based, Chlamydia trachomatis
Method: FIG. 5 illustrates flow cytometry on Chlamydia-infected human B-lymphocytes treated with delta tocotrienol. Human B-lymphocyte (JY) cells were treated with a 30 μmol/L concentration of delta tocotrienol in culture for 4 hours, infected with C. trachomatis SVK for 24-72 hours. Immunofluorescent Chlamydia-positive cells were detected by flow cytometry.
Chlamydial Strains: Stocks of C. trachomatis serovar K/VR887 were grown in J774A.1 cells without centrifuge assistance. Infected cells were lysed, this stock aliquoted and frozen down in SPG freeze medium (75.0 g sucrose, 0.52 g potassium phosphate, 1.22 g sodium phosphate dibasic, 0.72 g glutamic acid, diluted in […] ddH2O). These aliquots were stored in liquid N2 or at −80° C., and later thawed for use to infect monolayers.
Cell Lines Used: Mouse macrophages (J774A.1), human mammary tumor cells (MCF-7), and human epithelial cells (Hep-2), were obtained from the American Type Culture collection. Human mammary tumor cells (TMX2-28) were a kind gift from Dr. Arcaro, and human B-lymphocytes (JY) were a kind gift from Dr. Eric Martz. All cell lines were maintained in Richter's improved MEM insulin (IMEMZO, Irvine Scientific, Santa Ana, Calif.) with 5% fetal bovine serum (FBS, Atlanta Biologicals, Norcross, Ga.). Cells were grown to 80% confluence on 12 mm coverslips in 12 well plates (Becton Dickinson Labware, Franklin Lakes, N.J.). A dilution of 1:125 or 1:200 of the C. trachomatis serovar K stock was made using the standard complete cycloheximide overlay media (Bio-Whittaker, Walkersville, Md.) containing 10% FBS, and 1× L-glutamine (CCOM). This was layered onto the coverslip containing monolayers, and incubated for 24-48 hours at 37° C. with 5% CO2. Coverslips with the cell monolayers were harvested, rinsed with phosphate buffered saline (PBS), fixed with 70% cold methanol, stored and subsequently immunostained. […]
Immunostaining: Briefly, infected cells were immunostained with a 1:2 dilution of guinea pig anti-chlamydia polyclonal antibody (Biomeda, Foster City, Calif.), or a 1:125 dilution of rabbit anti-chlamydia EB whole serum for 1 hour at 37° C. Following PBS rinses X3, the bound antibodies were detected using a 1:100 dilution of FITC-conjugated donkey anti-guinea pig or a 1:125 dilution of TRITC-conjugated goat anti-rabbit secondary antibodies (Jackson ImmunoResearch, West Grove, Pa.). […] For photography, slides were assessed in the Massachusetts Central Microscopy Facility using a Zeiss LSM 510 Meta Confocal System and 630× magnification. […]
Samples were analyzed for carriage of Chlamydia-infected cells by FACScan (Becton, Dickinson and Company, Franklin Lakes, N.J.).

Chlamydia = assay: Chlamydia-infected human mammary tumor cells (TMX2-28) treated with delta tocotrienol; format: cell-based
Method: FIG. 7 illustrates Chlamydia-infected human mammary tumor cells treated with delta tocotrienol (630× magnification). Human mammary tumor cells (TMX2-28) were infected with Chlamydia for 72 hours and treated with a 15 μmol/L concentration of delta tocotrienol (FIG. 7A). Controls were left untreated (FIG. 7B).

delta tocotrienol was tested, and the “maximum chlamydial inhibition in JY cells” value (C. trachomatis SVK; at 36 hours, 30 μmol/L, flow cytometry) was 2.6 fold, the persistence of effect (C. trachomatis SVK; following one single tocotrienol treatment) was “at least 3 days” and the “period in which chlamydial inhibition was effective” value (C. trachomatis SVK; one single tocotrienol treatment) was no more than 1 days. For the same substance, the “chlamydial inhibition in JY cells” value (C. trachomatis SVK; over an infection period of 72 hours, 30 μmol/L, flow cytometry) was “at least 2 fold”, the “apoptosis of Chlamydia-infected, tocotrienol-treated cancer cells” value (Chlamydia) was “did not appear to become apoptotic” and the “inclusion size in tocotrienol treated mammary tumor cells” value (Chlamydia; 15 μmol/L, infected 72 hours, untreated >20 μm) was 10-15 μm.
